Data from publication PMC12362796, “Bilirubin Targeting WNK1 to Alleviate NLRP3‐Mediated Neuroinflammation” (Advanced Science, 2025).

What was measured:
[1] = test system: primary cultured hippocampal neurons; assay: MQAE intracellular chloride measurement in primary cultured hippocampal neurons; format: cell-based, mouse; conditions: co-treatment with bilirubin, DIV8 primary hippocampal neurons, MQAE
Excerpt: Therefore, we hypothesized that bilirubin activation of WNK1 kinase activity might affect intracellular chloride levels. […] This was detected using the sensitive molecular probe N‐(Ethoxycarbonylmethyl)‐6‐Methoxyquinolinium Bromide (MQAE), as indicated by a reduction in MQAE fluorescence intensity (Figure 4C,E).^[ [32] ^]
To ascertain whether bilirubin regulates chloride ions through WNK1, we generated Wnk1 gene knockout primary cultured neurons. We achieved neuron‐specific deletion of Wnk1 in hippocampal neurons by transducing primary neurons isolated from Wnk1^flox/flox embryonic mice with a lentivirus expressing hSyn‐Cre‐EGFP.^[ [33], [34] ^] […] Intracellular chloride concentration is crucial for modulating inhibitory synaptic transmission and, consequently, neuronal excitability.
Since bilirubin‐induced activation of WNK1 kinase activity increases [Cl⁻]i in neurons, we sought to elucidate the downstream effector proteins of WNK1 that are involved in this process. Neuronal [Cl⁻]i is primarily regulated by the Cl⁻‐K⁺ symporter KCC2, with additional modulation by factors such as the Na⁺‐K⁺‐Cl⁻ co‐transporter NKCC1, GABAA receptors, and glycine receptors (GlyR), all of which contribute to [Cl⁻]i homeostasis.^[ [31] ^] To investigate the mechanism underlying bilirubin‐induced changes in [Cl⁻]i, we selectively targeted these proteins using pharmacological inhibitors (VU0463271 for KCC2, bumetanide for NKCC1, bicuculline for GABAA receptors, and strychnine for GlyR) and activated KCC2 using CLP257.^[ [35], [36] ^] […] The bilirubin‐induced effect on [Cl⁻]i was not observed in primary astrocytes (Figure S15A,B, Supporting Information) or the HEK 293T cell line (Figure S15C, Supporting Information), both of which lacked KCC2 expression (Figure S16A,B, Supporting Information), further confirming that the effects of bilirubin and WNK1 on [Cl⁻]i elevation are dependent on KCC2.
Intracellular chloride concentration ([Cl⁻]i) was measured using the MQAE fluorescent dye (Life Technologies) following established protocols (Zhang, Lee et al. 2015). […]

full-length hWNK1 = target: T1, full-length hWNK1 (Homo sapiens, UniProt Q9H4A3); assay: MicroScale Thermophoresis (MST), EGFP-tagged full-length WNK1 in HEK293T cell lysates; format: binding; conditions: 15 min incubation, lysates of EGFP-WNK1 expressing HEK293T cells, control ligand
T1 construct: We overexpressed full‐length WNK1 fused with Green Fluorescent Protein (GFP); expressed in transfected cells; host or cells: HEK293T
Experimental: To validate the direct binding of bilirubin to WNK1, we performed a Microscale Thermophoresis (MST) analysis, which assesses the binding capacity of a compound by measuring the movement of proteins over a microscopic temperature gradient.^[ [26], [27] ^] We overexpressed full‐length WNK1 fused with Green Fluorescent Protein (GFP) in HEK‐293 cells, incubated the lysates with bilirubin at varying dilutions, and subjected them to precise MST measurements in capillaries. […] Furthermore, biliverdin, a structurally similar intermediate product generated before bilirubin formation, was used as a control.
All WNK1 clones were derived from the original untagged hWNK1 cDNA (NM_018979), which was modified and subcloned into the pcDNA3.1, referred to as “full‐length WNK1” throughout this study. Truncated constructs, including 1–190aa, 191–491aa, 1–491aa, and 491–2382aa fragments, were generated by PCR using the full‐length template and subsequently ligated into linearized pcDNA3.1 vectors. WNK2 was obtained from Addgene Plasmid #24569, and WNK3 was obtained from Addgene Plasmid #81723. Both were subjected to base modifications and cloned into pcDNA3.1. The WNK4 clone was derived from hWNK4 cDNA (NM_032387.5), modified, and subcloned into the pCMV3‐C‐GFPSpark vector.
In HEK293T cells, proteins tagged with green fluorescent protein (GFP) were expressed. […]

TRPM2 channels = test system: TRPM2 channels; parameters: method as in PMID 36921602; conditions: structural derivative of bilirubin; previous research; cited from earlier work

T1 sequence (Q9H4A3 whole entry, the tested form may be a part): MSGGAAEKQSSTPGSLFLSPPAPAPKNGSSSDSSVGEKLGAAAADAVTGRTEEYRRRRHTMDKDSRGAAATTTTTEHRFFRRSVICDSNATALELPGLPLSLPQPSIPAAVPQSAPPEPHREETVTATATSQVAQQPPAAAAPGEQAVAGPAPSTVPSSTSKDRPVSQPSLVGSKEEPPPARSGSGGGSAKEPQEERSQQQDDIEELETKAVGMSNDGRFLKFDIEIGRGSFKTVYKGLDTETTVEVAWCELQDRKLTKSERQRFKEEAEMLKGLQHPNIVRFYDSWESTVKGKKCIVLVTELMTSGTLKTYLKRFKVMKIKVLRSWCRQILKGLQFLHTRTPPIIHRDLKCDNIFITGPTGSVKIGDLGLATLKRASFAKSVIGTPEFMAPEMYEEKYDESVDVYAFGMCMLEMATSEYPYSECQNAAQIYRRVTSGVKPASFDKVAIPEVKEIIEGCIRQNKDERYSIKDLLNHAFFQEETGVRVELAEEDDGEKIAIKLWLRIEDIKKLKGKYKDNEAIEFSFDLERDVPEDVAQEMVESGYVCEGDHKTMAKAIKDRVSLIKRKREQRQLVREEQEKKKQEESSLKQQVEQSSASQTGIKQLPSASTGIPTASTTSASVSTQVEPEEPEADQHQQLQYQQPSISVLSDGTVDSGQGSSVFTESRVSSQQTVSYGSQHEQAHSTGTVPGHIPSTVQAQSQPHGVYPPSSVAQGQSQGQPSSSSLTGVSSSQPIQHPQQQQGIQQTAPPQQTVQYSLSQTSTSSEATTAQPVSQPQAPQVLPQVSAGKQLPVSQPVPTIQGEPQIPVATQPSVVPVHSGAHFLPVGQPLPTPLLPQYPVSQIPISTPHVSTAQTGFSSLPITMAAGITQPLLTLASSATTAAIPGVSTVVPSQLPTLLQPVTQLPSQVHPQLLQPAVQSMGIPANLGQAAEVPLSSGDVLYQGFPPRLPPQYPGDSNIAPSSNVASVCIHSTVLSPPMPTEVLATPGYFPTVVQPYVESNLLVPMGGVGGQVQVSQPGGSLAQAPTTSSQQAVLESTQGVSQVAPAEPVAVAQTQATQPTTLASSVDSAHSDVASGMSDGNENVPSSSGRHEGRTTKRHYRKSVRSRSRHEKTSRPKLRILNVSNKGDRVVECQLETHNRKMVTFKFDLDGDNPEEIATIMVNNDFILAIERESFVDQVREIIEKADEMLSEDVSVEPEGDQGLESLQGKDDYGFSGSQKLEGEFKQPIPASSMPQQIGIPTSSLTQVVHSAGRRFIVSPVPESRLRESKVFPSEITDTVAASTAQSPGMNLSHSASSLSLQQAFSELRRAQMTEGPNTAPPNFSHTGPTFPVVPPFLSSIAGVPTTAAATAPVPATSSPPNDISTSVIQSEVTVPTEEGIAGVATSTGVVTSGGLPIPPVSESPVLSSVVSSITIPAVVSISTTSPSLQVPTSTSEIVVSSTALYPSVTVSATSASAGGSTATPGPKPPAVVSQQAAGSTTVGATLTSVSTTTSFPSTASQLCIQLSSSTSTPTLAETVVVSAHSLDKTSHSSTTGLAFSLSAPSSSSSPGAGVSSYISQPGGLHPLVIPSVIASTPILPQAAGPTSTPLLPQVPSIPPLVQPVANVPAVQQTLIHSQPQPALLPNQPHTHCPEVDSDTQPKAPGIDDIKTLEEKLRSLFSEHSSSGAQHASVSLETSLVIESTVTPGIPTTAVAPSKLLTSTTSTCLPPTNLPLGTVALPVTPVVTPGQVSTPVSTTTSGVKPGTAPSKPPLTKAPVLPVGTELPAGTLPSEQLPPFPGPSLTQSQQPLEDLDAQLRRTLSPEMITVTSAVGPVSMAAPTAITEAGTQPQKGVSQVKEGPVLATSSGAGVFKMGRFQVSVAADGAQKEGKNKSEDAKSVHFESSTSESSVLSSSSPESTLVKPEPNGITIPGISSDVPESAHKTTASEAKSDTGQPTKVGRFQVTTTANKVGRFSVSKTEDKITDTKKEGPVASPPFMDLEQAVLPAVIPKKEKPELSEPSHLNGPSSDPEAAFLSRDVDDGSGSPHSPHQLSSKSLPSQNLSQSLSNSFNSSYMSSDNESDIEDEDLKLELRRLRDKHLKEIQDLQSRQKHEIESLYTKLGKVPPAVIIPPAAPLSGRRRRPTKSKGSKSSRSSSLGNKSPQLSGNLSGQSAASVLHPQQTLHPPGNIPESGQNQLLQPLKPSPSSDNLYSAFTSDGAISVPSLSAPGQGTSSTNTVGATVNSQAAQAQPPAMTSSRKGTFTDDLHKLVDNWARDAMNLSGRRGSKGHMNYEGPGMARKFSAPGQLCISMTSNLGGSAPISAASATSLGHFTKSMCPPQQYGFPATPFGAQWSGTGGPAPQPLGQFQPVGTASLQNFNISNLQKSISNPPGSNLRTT

O=C1N=C(N2CCCCN2)S/C1=C\c1ccc(F)cc1O [CLP257, reference compound]
effect on bilirubin-induced elevation of [Cl−]i [1]: counteracted the effect of bilirubin

C=CC1=C(C)/C(=C/C2=NC(=C\c3[nH]c(/C=C4\NC(=O)C(C)=C4C=C)c(C)c3CCC(=O)O)/C(CCC(=O)O)=C2C)NC1=O [Biliverdin, reference compound]
Kd (full-length hWNK1): 29.7 µM
activation of TRPM2 channels (TRPM2 channels): can activate
